Laboratory results: publication PMC7481439 (Frontiers in Pediatrics, 2020)
Marks after values point to notes of the source that are not given here.

What was measured:
[1] = Table 2; Drug Bank online database; cited from earlier work
[2] = neonatal centrifugal-based circuit, volume 200 ml, recovery at 180 min, n = 2; ref Wildschut ([18]); cited from earlier work
[3] = volume of distribution, listed under physico-chemical data; source not stated for Vd; cited from earlier work
[4] = In vitro closed-loop ECMO circuit model: drug recovery / sequestration
[5] = Spontaneous drug degradation (T2 control sample analysed at 24 h); details: whole blood control sample drawn at 2 min, kept in EDTA tube at the temperature of the circuits until 24 h; difference in drug recovery between T2 and T2-24; average
[6] = adult centrifugal-based circuit, volume 670 ml, n = 4, ref Shekar ([22]); cited from earlier work
[7] = adult centrifugal-based circuit, volume 800 ml, n = 3, ref Lemaitre ([39]); cited from earlier work
[8] = parameters: method as in PMID 18048412; details: Drug Bank online database; cited from earlier work

SMILES | PB % [1] | Mean drug recovery, Medos n [2] | Vd [3] | Decrease of drug level after 24 h, ILA active ([4]; ILA active circuit, whole blood primed, 24-h exposure) | Mean drug recovery after 24 h of circulation, r-ML ([4]; MiniLung (infant) circuit, whole blood primed, 700 ml/min, 24 h, dose VOR 40 mg, VAN 54 mg, expected level VOR 117.1, VAN 177.1 mg/L, corrected for spontaneous degradation, plasma, LC-MS/MS (VOR) or immune-assay (VAN), mean (±SD), n = 2 circuits, SD) | Mean drug recovery after 24 h of circulation, r-MLP ([4]; MiniLung petite (neonatal) circuit, whole blood primed, 500 ml/min, 24 h, dose VOR 35 mg, VAN 45 mg, expected level VOR 140, VAN 180 mg/L, corrected for spontaneous degradation, plasma, LC-MS/MS (VOR) or immune-assay (VAN), mean (±SD), n = 3 circuits, SD) | Decrease of drug level after 24 h, XLung ([4]; XLung circuit, whole blood primed, 24-h exposure) | Mean drug recovery after 24 h of circulation, r-XL ([4]; Xlung (adult) circuit, whole blood primed, […], 24 h, dose VOR 68 mg, VAN 91.8 mg, expected level VOR 143.2, VAN 193.7 mg/L, corrected for spontaneous degradation, plasma, LC-MS/MS (VOR) or immune-assay (VAN), mean (±SD), n = 2 circuits, SD) | Mean drug recovery at 24 h, ML ([4]; current experiment, MiniLung circuit, whole blood primed, volume 310 ml, 24 h, n = 2) | Mean drug recovery at 24 h, MLP ([4]; current experiment, MiniLung petite circuit, whole blood primed, volume 250 ml, 24 h, n = 3) | Mean drug recovery at 24 h, Xlung ([4]; current experiment, Xlung circuit, whole blood primed, volume 480 ml, 24 h, n = 2) | Mean drug recovery at 24 h, iLA ([4]; current experiment, iLAActivve circuit, whole blood primed, volume 400 ml, 24 h, n = 2) | Mean drug recovery after 24 h of circulation, r-iLA ([4]; iLAActivve iLA (pediatric) circuit, whole blood primed, […], 24 h, dose VOR 52.5 mg, VAN 67.5 mg, expected level VOR 134.7, VAN 173.2 mg/L, corrected for spontaneous degradation, plasma, LC-MS/MS (VOR) or immune-assay (VAN), mean (±SD), n = 2 circuits) | Mean percentage of drug recovery at 24 h ([4]; mean over all nine whole-blood primed circuits (MLP, ML, iLA, XLung), single bolus, pre-membrane (P2) plasma samples, 24 h, corrected for average spontaneous degradation, LC-MS/MS (voriconazole), immune-assay Architect (vancomycin), samples in triplicate) | Decrease of drug level after 24 h, minilung ([4]; minilung circuit, whole blood primed, 24-h exposure) | Spontaneous degradation [5] | Mean drug recovery at 24 h, Quadrox a (Shekar) [6] | Mean drug recovery at 24 h, Quadrox a (Lemaitre) [7] | LogP [8]
CN[C@H](CC(C)C)C(=O)N[C@H]1C(=O)N[C@@H](CC(N)=O)C(=O)N[C@H]2C(=O)N[C@H]3C(=O)N[C@H](C(=O)N[C@H](C(=O)O)c4cc(O)cc(O)c4-c4cc3ccc4O)[C@H](O)c3ccc(c(Cl)c3)Oc3cc2cc(c3O[C@@H]2O[C@H](CO)[C@@H](O)[C@H](O)[C@H]2O[C@H]2C[C@](C)(N)[C@H](O)[C@H](C)O2)Oc2ccc(cc2Cl)[C@H]1O [vancomycin] | 50% | 67.1^* % | 0.4 to 1 L/kg | 38% | 133.2 (±49.7) mg/L | 112 (±31.6) mg/L | 50% | 96.5 (±13.5) mg/L | 73% | 60% | 48% | 60% | 108.5 (±4,4) mg/L | 62% | 25% | 2.4% | 90% | 100% | –
C[C@@H](c1ncncc1F)[C@](O)(Cn1cncn1)c1ccc(F)cc1F [voriconazole] | 58% | – | 4.6 L/kg | – | – | – | – | – | – | – | – | – | – | – | – | – | – | – | 1.8
